Data: ChEMBL document CHEMBL1155663, “A new major triterpene saponin from the roots of Cucurbita foetidissima” (J Nat Prod, 2000)
Active and inactive are the calls of the source. No cut-off for these calls is given here.

Tested on: HT-29
Assay: Potentiation of cisplatin-induced cytotoxicity against human HT29 cells
Assay type: functional, cell-based

C[C@@H]1O[C@@H](O[C@@H]2[C@@H](OC(=O)[C@]34CCC(C)(C)C[C@@H]3C3=CC[C@@H]5[C@@]6(C)CC[C@H](O[C@@H]7O[C@H](C(=O)O)[C@@H](O)[C@H](O)[C@H]7O)C(C)(C)[C@@H]6CC[C@@]5(C)[C@]3(C)C[C@H]4O)OC[C@@H](O)[C@H]2O)[C@H](O)[C@H](O[C@H]2OC[C@H](O)[C@@H](O[C@H]3O[C@@H](CO)[C@H](O)[C@@H](O)[C@@H]3O)[C@@H]2O)[C@H]1O[C@@H]1OC[C@@H](O)[C@H](O)[C@H]1O was tested, and the Activity was “inactive”.
